Experimental data reported in patent US12150995B2, “IRAK degraders and uses thereof” (Kymera Therapeutics, Inc., priority 2020, dated 2024).

Molecular target: T1, IRAK4 (Homo sapiens, UniProt Q9NWZ3)
T1 construct: endogenous in cells; host or cells: OCI-LY10
T1 sequence (Q9NWZ3 1-460): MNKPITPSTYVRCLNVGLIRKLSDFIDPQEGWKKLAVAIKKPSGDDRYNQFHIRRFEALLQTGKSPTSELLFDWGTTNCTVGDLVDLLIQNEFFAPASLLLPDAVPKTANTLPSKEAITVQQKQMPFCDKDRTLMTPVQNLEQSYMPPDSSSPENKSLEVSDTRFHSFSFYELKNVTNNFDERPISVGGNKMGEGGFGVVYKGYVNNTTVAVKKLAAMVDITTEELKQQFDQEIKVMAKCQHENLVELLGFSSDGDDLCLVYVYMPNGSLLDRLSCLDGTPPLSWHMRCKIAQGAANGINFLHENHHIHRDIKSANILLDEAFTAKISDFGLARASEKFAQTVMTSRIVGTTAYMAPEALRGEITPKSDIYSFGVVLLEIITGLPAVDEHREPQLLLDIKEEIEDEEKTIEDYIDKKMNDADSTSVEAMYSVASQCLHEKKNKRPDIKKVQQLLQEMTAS
Experiment: IRAK4 MSD Degradation in OCI-LY10
Assay type: cell-based
Settings: OCI-LY10 cells, Meso Scale Discovery, incubated 4 to 24 hours
Protocol: Degradation of IRAK4 in OCI-LY10 was quantitatively measured using Meso Scale Discovery technology. OCI-LY10 cells were seeded in 96-well plates (Corning 3799) with a density of 300,000 cells per well in 100 μL fresh media. Compounds were then added to the assay plates with a final top concentration of 1 to 10 μM in a 1:3 dilution series with total of 8 doses. The assay plates were then incubated for 4 to 24 hours at 37° C. under 5% CO2. The assay plates were then centrifuged for 5 minutes and the cell pellets were treated with 100 μL/well RIPA lysis buffer (Boston BioProducts BP-115D) with proteinase inhibitors. To prepare MSD assay plates (Meso Scale Discovery Catalog number L15XA-3), the plates were coated with 2 μg/mL capture antibody (mouse Anti-IRAK4 antibody [2H9], ab119942) in PBS, at 40 μL/well. The plates were then incubated overnight at 4° C., washed 3 times with 150 μL/well TBST buffer (Cell Signaling Technology, Catalog number 9997S) and blocked with 150 μL/well blocking buffer (Meso Scale Discovery Catalog number R93BA-4). Cell lysates were then added to MSD assay plates and the plates were incubated at room temperature for 1 hour. The plates were then washed 3 times with 150 μL/well TBST buffer and […] primary detection antibody (rabbit Anti-IRAK4 antibody [Y279], from Abcam. Catalog number ab32511, 1 μg/mL). The assay plates were then incubated at room temperature for 1 hour, washed 3 times with 150 μL/well TBST buffer and 254/well secondary detection antibody, SULFO-TAG anti-rabbit antibody were added (anti rabbit antibody from Meso Scale Discovery, Catalog number R32AB-1, 1 μg/mL). The assay plates were then incubated at room temperature for 1 hour, washed 3 times with 150 μL/well TBST buffer, and 150 μL/well MSD reading buffer (Meso Scale Discovery catalog number R92TC-2) was added. The plates were then analyzed by a MSD reader (Meso Scale Discovery, Model Quick Plex SQ 120). The data was then analyzed by software Prism 7.0 from GraphPad and the dose-depended IRAK4 degradation were fit using a three-parameter logistic equation to calculate DC50.
The letter codes for IRAK4 DC50 include: A (<0.01 μM); B (0.01-0.05 μM); C (0.05-0.1 μM); D (0.1-0.2 μM); and E (>0.2 μM).

DC50 [nM]	Structure (SMILES)
10 to 50	COc1cc2nc(N3CCC(CN4CCN(c5cccc6c5n(C)c(=O)n6C5CCC(=O)NC5=O)CC4)CC3)sc2cc1NC(=O)c1cccc(C(F)(F)F)n1 (stereo not shown) [I-427]
50 to 100	Cn1c(=O)n(C2CCC(=O)NC2=O)c2ccc(F)c(C3CCN(C[C@H]4C[C@H](n5cc6cc(NC(=O)c7cccc(C(F)(F)F)n7)ncc6n5)C4)CC3)c21 (stereo partly shown) [I-147]
50 to 100	Cc1cccc(C(=O)Nc2cc3sc([C@H]4CC[C@H](CN5CCO[C@@H](CCCNc6cccc7c6C(=O)N(C6CCC(=O)NC6=O)C7=O)C5)CC4)nc3cc2C(C)(C)O)n1 (stereo partly shown) [I-472]
10 to 50	Cc1cc2nn([C@H]3CC[C@H](CN4C5CC4CN(c4cccc6c4n(C)c(=O)n6C4CCC(=O)NC4=O)C5)CC3)cc2cc1NC(=O)c1cccc(C(F)(F)F)n1 (stereo partly shown) [I-396]
< 10	COc1ccc2c(c1C1=CCN(C[C@H]3CC[C@H](n4cc5cc(NC(=O)c6cccc(C(F)(F)F)n6)ccc5n4)CC3)CC1)n(C)c(=O)n2C1CCC(=O)NC1=O (stereo partly shown) [I-355]
10 to 50	Cn1c(=O)n(C2CCC(=O)NC2=O)c2ccc(Cl)c(C3CCN(C[C@H]4CC[C@H](n5cc6cc(NC(=O)c7cccc(C(F)(F)F)n7)ccc6n5)CC4)CC3)c21 (stereo partly shown) [I-106]
< 10	Cn1c(=O)n(C2CCC(=O)NC2=O)c2cccc(N3CC4CCC(C3)N4C[C@H]3CC[C@H](n4cc5cc(NC(=O)c6cccc(C(F)(F)F)n6)ccc5n4)CC3)c21 (stereo partly shown) [I-164]
< 10	Cn1c(=O)n(C2CCC(=O)NC2=O)c2ccc(F)c(C3CCN(C[C@H]4CC[C@H](n5cc6cc(NC(=O)c7cccc(C#N)n7)ccc6n5)CC4)CC3)c21 (stereo partly shown) [I-128]
10 to 50	COc1cc2nn([C@H]3CC[C@H](CN4CC[C@@H](c5cccc6c(N7CCC(=O)NC7=O)cncc56)C4)CC3)cc2cc1NC(=O)c1cccc(C(F)(F)F)n1 [I-291]
< 10	CC(C)Nc1cc(-n2ccc3cc(C#N)cnc32)ncc1-c1cn([C@H]2CC[C@H](CN3CCC(c4cccc5c(N6CCC(=O)NC6=O)cncc45)CC3)CC2)nn1 [I-329]
50 to 100	COc1cc2nc([C@H]3CC[C@H](CN4CC5(CC(CCNc6cccc7c6C(=O)N(C6CCC(=O)NC6=O)C7=O)C5)C4)CC3)cn2cc1NC(=O)c1cccc(C(F)(F)F)n1 (stereo partly shown) [I-10]
10 to 50	COc1cc2nn([C@H]3CC[C@H](CN4CCN(c5cccc6c5n(C)c(=O)n6C5CCC(=O)NC5=O)CC4(C)C)CC3)cc2cc1NC(=O)c1cccc(C(F)(F)F)n1 (stereo partly shown) [I-306]
> 200	Cn1c(=O)n(C2CCC(=O)NC2=O)c2ccc(C3CCN(C[C@H]4CC[C@H](n5cc6cc(NC(=O)c7cccc(C(F)(F)F)n7)ccc6n5)CC4)CC3)c(Cl)c21 (stereo partly shown) [I-180]
50 to 100	COc1ccc2c(c1C1CCN(C[C@H]3C[C@H](n4cc5cc(NC(=O)c6cccc(C(F)(F)F)n6)ncc5n4)C3)CC1)n(C)c(=O)n2C1CCC(=O)NC1=O (stereo partly shown) [I-421]
100 to 200	CN(CCNc1cccc2c1C(=O)N(C1CCC(=O)NC1=O)C2=O)C(=O)[C@H]1CC[C@H](c2nc3cc(C(C)(C)O)c(NC(=O)c4cccc(C(F)(F)F)n4)cc3s2)CC1 (stereo partly shown) [I-488]
< 10	COc1cc2nn([C@H]3CC[C@H](CN4CCN(c5cccc6c5n(C5CC5)c(=O)n6C5CCC(=O)NC5=O)CC4)CC3)cc2cc1NC(=O)c1cccc(C(F)(F)F)n1 (stereo partly shown) [I-426]
> 200	COc1cncc(C(=O)Nc2cc3sc([C@H]4CC[C@H](CN(C)CCCNc5cccc6c5C(=O)N(C5CCC(=O)NC5=O)C6=O)CC4)nc3cc2OC)c1 (stereo partly shown) [I-450]
> 200	Cc1c(C2CCN(C[C@H]3CC[C@H](n4cc5cc(NC(=O)c6cccc(C(F)(F)F)n6)ccc5n4)CC3)CC2)ccc2c1n(C)c(=O)n2C1CCC(=O)NC1=O (stereo partly shown) [I-202]
10 to 50	COC(=O)c1cc2nn([C@H]3CC[C@H](CN4CCN(c5cccc6c5n(C)c(=O)n6C5CCC(=O)NC5=O)CC4)CC3)cc2cc1NC(=O)c1cccc(C(F)(F)F)n1 (stereo partly shown) [I-405]

DC50 [nM]	Structure (SMILES)
< 10	CC(C)Nc1cc(-c2ccc3cc(C#N)cnn23)ncc1C(=O)N[C@H]1CC[C@H](CN2CCN(c3cccc4c3n(C)c(=O)n4C3CCC(=O)NC3=O)CC2)CC1 (stereo partly shown) [I-362]
> 200	Cn1c(=O)n(C2CCC(=O)NC2=O)c2cccc(C3CCN(C[C@H]4CC[C@H](n5cc6cc(NC(=O)c7cccc(C(F)(F)F)n7)ccc6n5)CC4)C(C(F)(F)F)C3)c21 (stereo partly shown) [I-172]
< 10	CN(C[C@H]1CC[C@H](n2cc3cc(NC(=O)c4cccc(C(F)(F)F)n4)c(C(C)(C)O)cc3n2)CC1)C1CCN(c2ccc3c(N4CCC(=O)NC4=O)cncc3c2)CC1 [I-65]
< 10	COc1cc2nn([C@H]3CC[C@H](CN4CCN(c5c(C)ccc6c(N7CCC(=O)NC7=O)cncc56)CC4)CC3)cc2cc1NC(=O)c1cccc(C(F)(F)F)n1 [I-331]
< 10	COc1cc2nn([C@H]3CC[C@H](CN4CCC(c5c(C)ccc6c5n(C)c(=O)n6C5CCC(=O)NC5=O)CC4)CC3)cc2cc1NC(=O)c1cncc(C#N)c1 (stereo partly shown) [I-109]
10 to 50	Cn1c(=O)n(C2CCC(=O)NC2=O)c2cccc(C3CCN(C[C@H]4CC[C@H](n5cc6cc(NC(=O)c7cccc(C(F)(F)F)n7)c(C(F)(F)F)cc6n5)CC4)CC3)c21 (stereo partly shown) [I-76]
> 200	N#Cc1cnc2c(C(=O)Nc3ccc4nn([C@H]5CC[C@H](CN6CCC(c7ccc8c(N9CCC(=O)NC9=O)cncc8c7)CC6)CC5)cc4c3)cnn2c1 [I-170, 6-Cyano-N-[2-[4-[[4-[4-(2,4-dioxohexahydropyrimidin-1-yl)-7-isoquinolyl]-1-piperidyl]methyl]cyclohexyl]indazol-5-yl]pyrazolo[1,5-a]pyrimidine-3-carboxamide]
> 200	Cc1ccc2c(c1C1CCN(C[C@H]3CC[C@H](n4cc5cc(NC(=O)c6cccc(C(F)(F)F)n6)ncc5n4)CC3)CC1)n(C)c(=O)n2C1CCC(=O)N(C)C1=O (stereo partly shown) [I-162]
50 to 100	Cc1ccc2c(c1C1CCN(C[C@H]3C[C@H](n4cc5cc(NC(=O)c6cccc(C(F)(F)F)n6)c(Cl)cc5n4)C3)CC1)n(C)c(=O)n2C1CCC(=O)NC1=O (stereo partly shown) [I-143]
10 to 50	COc1cc2nn([C@H]3C[C@@H](CN4CC(c5cccc6c5n(C)c(=O)n6C5CCC(=O)NC5=O)C4)C3)cc2cc1NC(=O)c1cccc(C(F)(F)F)n1 (stereo partly shown) [I-50, N-[2-[3-[[3-[1-(2,6-dioxo-3-piperidyl)-3-methyl-2-oxo-benzimidazol-4-yl]azetidin-1-yl]methyl]cyclobutyl]-6-methoxy-indazol-5-yl]-6-(trifluoromethyl)pyridine-2-carboxamide]
< 10	Cn1c(=O)n(C2CCC(=O)NC2=O)c2cccc(C3CCN(C[C@H]4CC[C@H](n5cc6cc(NC(=O)c7cccc(C(F)(F)F)n7)c(N7CCOCC7)cc6n5)CC4)CC3)c21 (stereo partly shown) [I-38]
10 to 50	CC(C)Nc1cc(-n2ccc3cc(F)cnc32)ncc1C(=O)N[C@H]1CC[C@H](CN2CCN(c3cccc4c3n(C)c(=O)n4C3CCC(=O)NC3=O)CC2)CC1 (stereo partly shown) [I-290]
< 10	Cc1cc2nn([C@H]3CC[C@H](CN4C[C@@H]5C[C@H]4CN5c4cccc5c4n(C)c(=O)n5C4CCC(=O)NC4=O)CC3)cc2cc1NC(=O)c1cccc(C(F)(F)F)n1 (stereo partly shown) [I-303]
10 to 50	Cn1c(=O)n(C2CCC(=O)NC2=O)c2cccc(N3CCN(C[C@H]4CC[C@H](n5cc6cc(NC(=O)c7cccc(C(F)(F)F)n7)ccc6n5)CC4)C(C)(C)C3)c21 (stereo partly shown) [I-324]
> 200	COc1cc2nn([C@H]3CC[C@H](CN4CCC5(CC4)CC(CCNc4cccc6c4C(=O)N(C4CCC(=O)NC4=O)C6=O)C5)CC3)cc2cc1NC(=O)c1cnn2ccc(C(F)(F)F)nc12 (stereo partly shown) [I-15]
> 200	CN(CCCO[C@H]1C[C@H](Nc2cccc3c2C(=O)N(C2CCC(=O)NC2=O)C3=O)C1)C[C@H]1CC[C@H](n2cc3cc(NC(=O)c4cccc(C(F)(F)F)n4)ccc3n2)CC1 (stereo partly shown) [I-354]
10 to 50	CC(C)Nc1cc(-c2ccc3cc(C#N)cnn23)ncc1C(=O)N[C@H]1CC[C@H](CN2CCC(OCC#Cc3cccc4c3n(C)c(=O)n4C3CCC(=O)NC3=O)CC2)CC1 (stereo partly shown) [I-199]
10 to 50	Cn1c(=O)n(C2CCC(=O)NC2=O)c2cccc(N3CCCN(C[C@H]4CC[C@H](n5cc6cc(NC(=O)c7cccc(C(F)(F)F)n7)ccc6n5)CC4)CC3)c21 (stereo partly shown) [I-328]
